Where a name gives a salt, the structure may show the parent alone.
Columns and labels:
TNF-α = TNF-α production in THP-1 cells challenged with LPS; assay type: cell-based, Human; settings: LPS (100 μg/ml), 5 μM compound, 24 h
Protocol: Human THP-1 cells cultured as in Example 3.3 were treated with LPS (100 μg/ml) alone or in the presence of 5 μM compound C, compound E or the comparative dimethyl fumarate (DMF) for 24 h.

HO-1 = HO-1 protein expression in THP-1 cells; assay type: cell-based, Human
Protocol: THP-1 cells were exposed to different concentration of compounds A, B, and C during 6 hours.

[1] = system: BV2 cells challenged with lipopolysaccharide (LPS); test: Nitrite production in BV2 cells challenged with LPS (Griess method); assay type: cell-based
Protocol: […] At the end of the incubation, nitrite levels were measured using the Griess method.^12,14 Briefly, cell plates were centrifuged at 10,000×g for 5 min and the cell-free supernatant was incubated with an equal volume of Griess reagent (2 mM N-(1-naphtyl)ethylenediamide, 30 mM sulfanilamide and 140 mM o-phosphoric acid) for 10 min at room temperature. The absorbance was measured at 560 nm. Concentrations of nitrite (μM) were calculated from a standard curve of sodium nitrite.

| SMILES | TNF-α production (TNF-α) | concentration needed for the same HO-1 result, as fold of the compound C concentration (5 μM) (HO-1) [fold] | Nitrite levels (μM) LPS + compound ([1]; 5 μM compound, 24 hr incubation with 0.5 μg/ml LPS, mean ± SEM) [µM] | % decrease vs. LPS (nitrite) ([1]; 5 μM compound, 24 hr, LPS) [%] | concentration giving almost the same reduction of nitrite production (compound C vs compound J) ([1]; BV2, LPS 1 μg/ml 24 h) [µM] |
| --- | --- | --- | --- | --- | --- |
| COC(=O)/C=C/C(=O)OC [dimethyl fumarate (DMF)] | did not have any effect |  |  |  |  |
| C#CCOC(=O)/C=C/C(=O)OCC [Compound J] |  | 10 | 43.2 ± 1.0 | 50.1 | 5 |

From patent publication US9944669B2, “Fumarate-CO-releasing molecule hybrids, their use in the treatment of inflammatory or cardiovascular diseases and their process of preparation” (UNIVERSITE PARIS EST CRETEIL VAL DE MARNE, priority 2014, dated 2018)
